Test systems include UO-31 renal; M19-MEL melanoma; SF-268 CNS; HOP-18 NSCLC; OVCAR-3 ovarian; ACHN renal; NCI-H226 lung; SNB-19 CNS.
Common to all, as to assay: NCI anticancer screen, dose series, 48 h

SMILES strings stand for the structures. Values joined by “and” are separate entries in the source; they are usually repeats but may differ in a detail not shown here. Equal entries are not always repeated.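 Exposure lasted 48 hours, with cells grown in 96-well plates and compounds tested at five concentrations. Here, GI50 denotes the concentration required for 50% inhibition of growth. The concentration for full growth arrest is given as TGI.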 A value given as a limit tells only on which side of the number the result lay.

As for `C/C(CCc1ccccc1)=N\NC(N)=S`, the TGI in the assay with UO-31 renal, with M19-MEL melanoma, with SF-268 CNS, with HOP-18 NSCLC, with OVCAR-3 ovarian and in the assay on ACHN renal was > 100 µM throughout. Moreover, the TGI in the assay with NCI-H226 lung is > 100 µM.
Turning to `COC(=O)c1ccccc1NC(=O)C(=O)NNC(=O)c1ccncc1`, the TGI in the assay on UO-31 renal, in the assay on M19-MEL melanoma, in the assay with SNB-19 CNS, in the assay on HOP-18 NSCLC, in the assay on OVCAR-3 ovarian and in the assay with ACHN renal was > 100 µM in each case. For the same compound, the TGI with NCI-H226 lung is > 100 µM.
As for `C[C@]12CCCC(=O)C1(O)C[C@H](C(=O)O)CC2` (some centres not stated), the TGI in the assay with UO-31 renal, with M19-MEL melanoma, in the assay with SF-268 CNS, with SNB-19 CNS, in the assay with HOP-18 NSCLC and in the assay on OVCAR-3 ovarian was > 100 µM each time. The TGI in the assay on ACHN renal and with NCI-H226 lung was > 100 µM throughout.
Consider `CCOC(=O)/C=C1\CCCC12OCCO2`, for which the TGI in the assay on UO-31 renal, in the assay on M19-MEL melanoma, in the assay on SF-268 CNS, in the assay on SNB-19 CNS, in the assay with HOP-18 NSCLC and in the assay with OVCAR-3 ovarian was > 100 µM throughout. Besides, the TGI with ACHN renal and with NCI-H226 lung was > 100 µM in each case.
As to `CC[O-].CC[O-].O=S(=O)([O-])c1ccc([O-])c2ncccc12.O=S(=O)([O-])c1ccc([O-])c2ncccc12.[Ti+4]`, the GI50 was 74.4 µM with UO-31 renal; > 100 µM in the assay with M19-MEL melanoma; 42.1 µM in the assay with SF-268 CNS; 58.3 µM in the assay with SNB-19 CNS; > 100 µM in the assay on HOP-18 NSCLC; 47.6 µM in the assay with OVCAR-3 ovarian. Also, the GI50 in the assay with ACHN renal is 59.1 µM; in the assay with NCI-H226 lung, > 100 µM. In addition, the TGI with UO-31 renal, in the assay with M19-MEL melanoma, with SF-268 CNS, in the assay with SNB-19 CNS, in the assay with HOP-18 NSCLC and with OVCAR-3 ovarian was > 100 µM each time. Besides, the TGI in the assay with ACHN renal and with NCI-H226 lung was > 100 µM each time.
For the compound `CCOP(=O)(OCC)OC(C#N)c1ccc(-c2ccccc2)cc1` (configuration not stated), the TGI in the assay on UO-31 renal was > 100 µM; in the assay with M19-MEL melanoma, 50.3 µM; with SF-268 CNS, 44.4 µM; in the assay on SNB-19 CNS, > 100 µM; with HOP-18 NSCLC it was 98.2 µM; in the assay on OVCAR-3 ovarian, 39.1 µM. The TGI with ACHN renal and with NCI-H226 lung was > 100 µM in each case.
Consider `CN(C)CC1CCC/C1=N\O` (configuration not stated), for which the TGI with UO-31 renal, with M19-MEL melanoma, with SF-268 CNS, in the assay on HOP-18 NSCLC, in the assay with OVCAR-3 ovarian and in the assay on ACHN renal was > 100 µM throughout. Besides, the TGI in the assay with NCI-H226 lung was > 100 µM.
On to `C/C(=N\N(c1ccccc1)c1ccccc1)c1c(O)cc(C)oc1=O`, for which the TGI in the assay on UO-31 renal, in the assay with M19-MEL melanoma, in the assay on SF-268 CNS, with SNB-19 CNS, in the assay with HOP-18 NSCLC and with ACHN renal was > 100 µM each time. Further, in the assay on NCI-H226 lung, the TGI was > 100 µM.
For `COC(=O)C(CC(=O)Nc1ccc(C)cc1)C(=O)C(=O)Nc1ccccc1C(C)C` (configuration not stated), the TGI with UO-31 renal, in the assay with M19-MEL melanoma, in the assay with SF-268 CNS, in the assay on SNB-19 CNS, in the assay on HOP-18 NSCLC and in the assay with OVCAR-3 ovarian was > 100 µM each time. Besides, the TGI in the assay with ACHN renal and with NCI-H226 lung was > 100 µM in each case.
Take `COc1ccc(/C=C2\CCCC(C(NO)c3ccc(OC)cc3)C2=NO)cc1` (configuration not stated): the TGI in the assay with UO-31 renal is 75.7 µM; in the assay with M19-MEL melanoma it was > 100 µM; in the assay with SF-268 CNS it was > 100 µM; in the assay on SNB-19 CNS, > 100 µM; in the assay with HOP-18 NSCLC, > 100 µM; in the assay with OVCAR-3 ovarian it was > 100 µM. Further, the TGI with ACHN renal was > 100 µM.
Take `Cc1cccc(C)c1NC(=O)C1C(=O)N(c2c(C)cccc2C)C(=O)/C1=N\NC(N)=S` (configuration not stated): the TGI in the assay on UO-31 renal, in the assay on M19-MEL melanoma, in the assay on SF-268 CNS, in the assay with SNB-19 CNS, in the assay on HOP-18 NSCLC and in the assay with OVCAR-3 ovarian was > 100 µM in each case. Besides, in the assay on ACHN renal, the TGI was > 100 µM.
Regarding `NCCCCNc1ccc2c(=O)[nH][nH]c(=O)c2c1`, the TGI in the assay with UO-31 renal, in the assay with M19-MEL melanoma, in the assay with SF-268 CNS, in the assay on SNB-19 CNS, in the assay with HOP-18 NSCLC and with OVCAR-3 ovarian was > 100 µM throughout. Besides, the TGI in the assay on ACHN renal and in the assay with NCI-H226 lung was > 100 µM throughout.
On to `CC[C@]1(O)C(=O)OCc2c1cc1n(c2=O)Cc2cc3c(N)cccc3nc2-1`, for which the TGI in the assay on UO-31 renal, in the assay with M19-MEL melanoma, with SF-268 CNS, in the assay on SNB-19 CNS, with HOP-18 NSCLC and in the assay with OVCAR-3 ovarian was > 100 µM throughout. Further, the TGI in the assay on ACHN renal and in the assay with NCI-H226 lung was > 100 µM in each case.
As for `CN1CC[C@]2(C)c3ccc(O)cc3CC3CCCC1C32C` (some centres not stated), the TGI with UO-31 renal, in the assay on M19-MEL melanoma, in the assay with SF-268 CNS, in the assay on SNB-19 CNS, in the assay with HOP-18 NSCLC and with OVCAR-3 ovarian was > 100 µM each time. Moreover, the TGI in the assay on ACHN renal and in the assay on NCI-H226 lung was > 100 µM in each case.
With `Cc1ccc(-c2cc(-c3ccccc3)c(C#N)c(=O)n2C2OC(CO)C(O)C(O)C2O)cc1` (configuration not stated), the TGI with UO-31 renal, in the assay with M19-MEL melanoma, in the assay on SF-268 CNS, in the assay with SNB-19 CNS, with HOP-18 NSCLC and with OVCAR-3 ovarian was > 100 µM throughout. Moreover, the TGI with ACHN renal and in the assay on NCI-H226 lung was > 100 µM each time.
`O=[N+]([O-])c1cnn(C2=CNc3ccccc3N=C2)c1`: the TGI in the assay on UO-31 renal, with M19-MEL melanoma, in the assay on SF-268 CNS, with SNB-19 CNS, in the assay on HOP-18 NSCLC and in the assay on OVCAR-3 ovarian was > 100 µM in each case. Besides, the TGI with ACHN renal and in the assay with NCI-H226 lung was > 100 µM in each case.
Turning to `N#CCCN(CCC#N)c1ccc(C(Sc2ccccc2)C(NC(=O)c2cc([N+](=O)[O-])ccc2Cl)C(=O)Sc2ccccc2)cc1` (configuration not stated), the GI50 was 1.11 µM in the assay with UO-31 renal; 2.95 µM with M19-MEL melanoma; 1.27 µM with SF-268 CNS; 3.98 µM in the assay with SNB-19 CNS; 2.14 µM in the assay with OVCAR-3 ovarian; 2.81 µM in the assay on ACHN renal. The TGI is 4.77 µM in the assay on UO-31 renal; 11.9 µM with M19-MEL melanoma; 8.86 µM and 5.95 µM with SF-268 CNS; 18.6 µM in the assay with SNB-19 CNS; 47.3 µM in the assay on HOP-18 NSCLC; 8.36 µM and 7.63 µM with OVCAR-3 ovarian. Besides, the TGI with ACHN renal is 16.3 µM; in the assay with NCI-H226 lung it was 5.16 µM and 5.01 µM.
With `Cc1cccc(-n2c(=S)[nH]c3c(sc(=O)n3-c3ccccc3C)c2=O)c1`, the TGI in the assay on UO-31 renal, in the assay with M19-MEL melanoma, in the assay with SF-268 CNS, in the assay with SNB-19 CNS, in the assay with HOP-18 NSCLC and with OVCAR-3 ovarian was > 100 µM throughout. Besides, the TGI in the assay with ACHN renal and with NCI-H226 lung was > 100 µM throughout.

For the origin of these results see PubChem BioAssay (NCI).
